Like-named read-outs stand apart in the source and are kept apart here.
Tests used:
recombinant human PFK-M = target: T1, recombinant human PFK-M (Homo sapiens, UniProt P08237); assay: ALDO-TIM-G3PDH enzyme-linked kinetic assay, PFK-M; format: biochemical; set-up: VmaxATP + modulator / VmaxF6P + modulator / K0.5ATP + modulator / K0.5F6P + modulator: unit not given here
T1 construct: made in house; host or cells: PFK-deficient Saccharomyces cerevisiae
T1 sequence (P08237 1-780): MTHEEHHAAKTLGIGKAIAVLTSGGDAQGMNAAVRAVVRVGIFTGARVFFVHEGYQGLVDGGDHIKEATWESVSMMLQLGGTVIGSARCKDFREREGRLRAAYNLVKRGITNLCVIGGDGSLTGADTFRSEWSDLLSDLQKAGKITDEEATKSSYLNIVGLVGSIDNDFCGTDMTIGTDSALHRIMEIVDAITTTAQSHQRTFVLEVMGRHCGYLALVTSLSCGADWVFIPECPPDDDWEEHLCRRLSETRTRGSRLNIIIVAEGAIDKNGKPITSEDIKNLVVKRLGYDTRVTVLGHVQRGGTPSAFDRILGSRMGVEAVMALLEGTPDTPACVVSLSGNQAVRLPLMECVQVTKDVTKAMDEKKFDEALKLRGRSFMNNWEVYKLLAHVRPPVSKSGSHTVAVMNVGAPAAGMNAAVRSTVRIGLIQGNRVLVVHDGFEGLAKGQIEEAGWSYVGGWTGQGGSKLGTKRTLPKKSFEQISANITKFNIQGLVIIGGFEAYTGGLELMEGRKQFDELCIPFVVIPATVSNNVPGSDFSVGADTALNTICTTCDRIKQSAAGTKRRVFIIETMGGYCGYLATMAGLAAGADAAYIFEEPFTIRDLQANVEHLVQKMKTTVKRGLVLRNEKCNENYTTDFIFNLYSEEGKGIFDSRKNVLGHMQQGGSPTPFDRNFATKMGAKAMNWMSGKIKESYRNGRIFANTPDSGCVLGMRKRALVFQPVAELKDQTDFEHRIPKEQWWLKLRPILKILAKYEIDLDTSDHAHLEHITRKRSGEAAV
Method: (§1) Recombinant human PFKs were expressed in PFK-deficient Saccharomyces cerevisiae and purified using the methods described previously, adapting earlier materials and protocols. Production of PFK intended for use in ATP titration experiments used 1 mM F6P as a tetramer stabilising agent in protein purification and storage buffers. Production of PFK intended for use in F6P titration experiments used 1 mM ATP as a tetramer stabilising agent in protein purification and storage buffers. Experimental details on the purification and characterisation procedures including figures showing SDS–PAGE gels of the highly pure PFKs used in the kinetic experiments described in this work have been recently published.
(§2) Assay buffer consisted of 50 mM TEA, 100 mM KCl, 10 mM MgCl2, 1 mM Tris(2-carboxyethyl)phosphine hydrochloride (TCEP), 10% glycerol, pH 7.4. Assay mix consisted of 5 units/ml glycerol-3-phosphate dehydrogenase (G3PDH, Sigma–Aldrich G6880), 2.5 units/ml aldolase (Sigma–Aldrich A2714), 25 units/ml triosephosphate isomerase (TIM, Sigma–Aldrich T6258), and 1.25 mM NADH. ATP and F6P were obtained from Sigma–Aldrich (A2383 and F3627, respectively). For ATP titrations, 38 µl of buffer or ligand were added to a clear non-binding 96-well plate. 40 µl of assay mix containing 10 mM F6P (final concentration 4 mM) was added and the plate was incubated at 25°C for 5 min. An amount of 2 µl of PFK isoforms were added to each well from stock concentrations of 150 µg/ml and the reaction was immediately started with 20 µl of ATP at varying concentrations. For F6P titrations, 30 µl of buffer or ligand was added to a clear non-binding 96-well plate. An amount of 40 µl of assay mix containing 1.25 mM ATP (final concentration 0.5 mM) was added and the plate was incubated at 25°C for 5 min. An amount of 5 µl of PFK isoforms were added to each well from stock concentrations of 200 µg/ml and the reaction was immediately started with 20 µl F6P at varying concentrations. All ligands and substrates (including ATP) were used at pH 7.4. All metabolites were obtained from Sigma–Aldrich unless otherwise stated. […] A SpectraMax M5 Multi-Mode Microplate Reader was used to measure A340nm at 13 s intervals for 10 min. All experiments were performed in triplicate unless otherwise stated.
(§3) Time-dependent absorbance change was converted into rate of NADH oxidation (µM s^−1) or specific activity (µmol min^−1 mg protein^−1) using the Beer-Lambert law (molar extinction coefficient of NADH 6.22 mM^−1 cm^−1). The initial rate of reaction was used to avoid accumulation of ADP, which activates PFK, interfering with the determination of kinetic properties. Non-linear regression analysis was performed on substrate titration data using GraphPad Prism 7, with curves fitted using allosteric sigmoidal models, enabling determination of steady-state kinetic values.

recombinant human PFK-P = target: T2, recombinant human PFK-P (Homo sapiens, UniProt Q01813); assay: ALDO-TIM-G3PDH enzyme-linked kinetic assay, PFK-P; format: biochemical; conditions: for K0.5F6P + modulator / VmaxF6P + modulator: ATP 0.5mM; for K0.5F6P + modulator / VmaxF6P + modulator / K0.5ATP + modulator / VmaxATP + modulator: N=3, mean (SD); for K0.5ATP + modulator / VmaxATP + modulator: F6P 4mM
T2 construct: made in house; host or cells: PFK-deficient Saccharomyces cerevisiae
T2 sequence (Q01813 1-784): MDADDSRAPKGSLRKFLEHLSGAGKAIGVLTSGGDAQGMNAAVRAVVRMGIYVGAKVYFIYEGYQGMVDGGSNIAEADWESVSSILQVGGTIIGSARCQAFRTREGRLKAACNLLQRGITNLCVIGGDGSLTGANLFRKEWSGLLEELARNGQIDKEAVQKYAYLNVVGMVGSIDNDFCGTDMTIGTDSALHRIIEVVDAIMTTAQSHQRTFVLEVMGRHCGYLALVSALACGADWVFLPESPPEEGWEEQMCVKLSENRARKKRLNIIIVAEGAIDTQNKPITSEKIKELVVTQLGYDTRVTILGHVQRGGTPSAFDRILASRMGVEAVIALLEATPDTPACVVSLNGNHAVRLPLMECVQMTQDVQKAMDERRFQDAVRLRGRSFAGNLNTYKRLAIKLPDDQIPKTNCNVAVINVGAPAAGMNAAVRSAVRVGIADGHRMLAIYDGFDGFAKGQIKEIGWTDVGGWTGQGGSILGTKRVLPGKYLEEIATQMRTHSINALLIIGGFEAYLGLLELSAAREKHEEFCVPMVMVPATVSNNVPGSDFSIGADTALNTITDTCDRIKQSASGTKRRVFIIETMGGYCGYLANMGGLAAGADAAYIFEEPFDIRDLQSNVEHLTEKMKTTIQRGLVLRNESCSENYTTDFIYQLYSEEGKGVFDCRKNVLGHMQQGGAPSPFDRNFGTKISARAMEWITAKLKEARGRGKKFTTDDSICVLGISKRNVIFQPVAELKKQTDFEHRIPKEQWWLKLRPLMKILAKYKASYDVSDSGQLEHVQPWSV
Method: as §1, §2, §3

PFK = tested on: PFK; set-up: key to Effect (activator or inhibitor of PFK): “+” indicates activator; “-“ indicates inhibitor; conditions: cited from earlier work; for IC50 or AC50 (activator): unit inferred, ref Moreno-Sanchez et al., 2012; for Effect (activator or inhibitor of PFK): published literature, ref selected references in Supplementary Table 1
[1] = activation, read-out: AC50^F26BP
[2] = modulator 10 µM, ATP 0.5mM, N=3, mean (SD)
[3] = modulator 10 µM, F6P 4mM, N=3, mean (SD)

## O=P(O)(O)OC[C@H]1O[C@@](CO)(OP(=O)(O)O)[C@@H](O)[C@@H]1O [F26BP, fructose 2,6-bisphosphate]
Recombinant human PFK-M
  effect on PFK activity, in words: strongly activated
Recombinant human PFK-M; ATP titration
  allosteric constant K0.5^ATP+F26BP/K0.5^ATP: 1.10
Recombinant human PFK-M; [1]
  AC50: 6.27 µM
Recombinant human PFK-M; modulator 10 µM
  change in kcat^ATP/K0.5^ATP compared with control PFK without modulator: −7.4%
  change in kcat^F6P/K0.5^F6P compared with control PFK without modulator: +82%
Recombinant human PFK-M; [2]
  K0.5F6P + modulator: 109.6 (5.3)
  VmaxF6P + modulator: 5.81 (0.09)
Recombinant human PFK-M; [3]
  K0.5ATP + modulator: 165.2 (9.2)
  VmaxATP + modulator: 38.80 (0.75)
Recombinant human PFK-P
  effect on PFK activity, in words: strongly activated
Recombinant human PFK-P; ATP titration
  allosteric constant K0.5^ATP+F26BP/K0.5^ATP: 0.54
Recombinant human PFK-P; [1]
  AC50: 9.13 µM
Recombinant human PFK-P; modulator 10 µM
  change in kcat^ATP/K0.5^ATP compared with control PFK without modulator: +88%
  change in kcat^F6P/K0.5^F6P compared with control PFK without modulator: +111%
  K0.5F6P + modulator: 2143 (132) M
  VmaxF6P + modulator: 2.45 (0.18) moles/min/mg
  K0.5ATP + modulator: 176.8 (33.8) M
  VmaxATP + modulator: 31.26 (1.96) moles/min/mg
PFK; first of three values marked *
  IC50 or AC50 (activator): 0.53 µM
PFK
  Effect (activator or inhibitor of PFK): +
PFK; second of three values marked *
  IC50 or AC50 (activator): 4.6 µM
PFK; third of three values marked *
  IC50 or AC50 (activator): 0.58 µM

## C=C(OP(=O)(O)O)C(=O)O [PEP, phosphoenolpyruvate]
Recombinant human PFK-M; modulator 1100 µM
  change in kcat^ATP/K0.5^ATP compared with control PFK without modulator: −11%
  change in kcat^F6P/K0.5^F6P compared with control PFK without modulator: −7%
Recombinant human PFK-P; modulator 1100 µM
  change in kcat^ATP/K0.5^ATP compared with control PFK without modulator: −40%
  change in kcat^F6P/K0.5^F6P compared with control PFK without modulator: +9%
  K0.5F6P + modulator: 1378 (96) M
  VmaxF6P + modulator: 0.81 (0.04) moles/min/mg
  K0.5ATP + modulator: 352.3 (133.2) M
  VmaxATP + modulator: 23.07 (2.40) moles/min/mg
PFK
  Effect (activator or inhibitor of PFK): -

From paper PMC7702303, “Biochemical and transcript level differences between the three human phosphofructokinases show optimisation of each isoform for specific metabolic niches” (Biochemical Journal, 2020)
